In PubChem BioAssay (NCI):
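The concentration for 50% growth inhibition is given as GI50. TGI is the concentration that stops growth completely.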

Legend:
Assay in all cases: NCI anticancer screen, dose series, 384-well format
COLO 205 colon = tested on: COLO 205 colon
HT29 colon = tested on: HT29 colon
HCT-15 colon = tested on: HCT-15 colon
NCI-H226 lung = tested on: NCI-H226 lung
M14 melanoma = tested on: M14 melanoma
OVCAR-3 ovarian = tested on: OVCAR-3 ovarian
NCI-H460 NSCLC = tested on: NCI-H460 NSCLC
IGROV1 ovarian = tested on: IGROV1 ovarian
786-0 renal = tested on: 786-0 renal
HOP-62 NSCLC = tested on: HOP-62 NSCLC
PC-3 prostate = tested on: PC-3 prostate
SK-OV-3 ovarian = tested on: SK-OV-3 ovarian
RXF 393 renal = tested on: RXF 393 renal
RPMI-8226 leukemia = tested on: RPMI-8226 leukemia
MDA-MB-231 breast = tested on: MDA-MB-231 breast
SK-MEL-5 melanoma = tested on: SK-MEL-5 melanoma
SK-MEL-2 melanoma = tested on: SK-MEL-2 melanoma
SNB-19 CNS = tested on: SNB-19 CNS
NCI-H322M lung = tested on: NCI-H322M lung
OVCAR-8 ovarian = tested on: OVCAR-8 ovarian
LOX IMVI melanoma = tested on: LOX IMVI melanoma
SNB-75 CNS = tested on: SNB-75 CNS
SN12C renal = tested on: SN12C renal
HL-60(TB) leukemia = tested on: HL-60(TB) leukemia
MOLT-4 leukemia = tested on: MOLT-4 leukemia
NCI-H23 lung = tested on: NCI-H23 lung
U251 glioblastoma = tested on: U251 glioblastoma
CCRF-CEM leukemia = tested on: CCRF-CEM leukemia
ACHN renal = tested on: ACHN renal
A549 NSCLC = tested on: A549 NSCLC
SF-539 CNS = tested on: SF-539 CNS
SF-268 CNS = tested on: SF-268 CNS
TK-10 renal = tested on: TK-10 renal
DU-145 prostate = tested on: DU-145 prostate
K-562 leukemia = tested on: K-562 leukemia
KM12 colon = tested on: KM12 colon
T-47D breast = tested on: T-47D breast
BT-549 breast = tested on: BT-549 breast
HS 578T breast = tested on: HS 578T breast
MDA-MB-435 melanoma = tested on: MDA-MB-435 melanoma
SK-MEL-28 melanoma = tested on: SK-MEL-28 melanoma
HCT-116 colon = tested on: HCT-116 colon
MCF7 breast = tested on: MCF7 breast
SF-295 CNS = tested on: SF-295 CNS
CAKI-1 renal = tested on: CAKI-1 renal
SR leukemia = tested on: SR leukemia
EKVX NSCLC = tested on: EKVX NSCLC
NCI/ADR-RES ovarian = tested on: NCI/ADR-RES ovarian
SW-620 colon = tested on: SW-620 colon
MALME-3M melanoma = tested on: MALME-3M melanoma
A498 renal = tested on: A498 renal
HOP-92 NSCLC = tested on: HOP-92 NSCLC
MDA-MB-468 breast = tested on: MDA-MB-468 breast
OVCAR-4 ovarian = tested on: OVCAR-4 ovarian
UACC-257 melanoma = tested on: UACC-257 melanoma
NCI-H522 lung = tested on: NCI-H522 lung
HCC-2998 colon = tested on: HCC-2998 colon
OVCAR-5 ovarian = tested on: OVCAR-5 ovarian
UACC-62 melanoma = tested on: UACC-62 melanoma

C[C@@H]1CCN(C(=O)CC#N)C[C@@H]1N(C)c1ncnc2[nH]ccc12
GI50 (COLO 205 colon): > 100 µM | TGI (COLO 205 colon): > 100 µM | GI50 (HT29 colon): > 100 µM | TGI (HT29 colon): > 100 µM | GI50 (HCT-15 colon): > 100 µM | TGI (HCT-15 colon): > 100 µM | GI50 (NCI-H226 lung): > 42.6 µM | TGI (NCI-H226 lung): > 85.5 µM | GI50 (M14 melanoma): > 100 µM | TGI (M14 melanoma): > 100 µM | GI50 (OVCAR-3 ovarian): > 100 µM | TGI (OVCAR-3 ovarian): > 100 µM | GI50 (NCI-H460 NSCLC): > 100 µM | TGI (NCI-H460 NSCLC): > 100 µM | GI50 (IGROV1 ovarian): > 79.9 µM | TGI (IGROV1 ovarian): > 100 µM | GI50 ([…]-0 renal): > 100 µM | TGI (786-0 renal): > 100 µM | GI50 (HOP-62 NSCLC): > 100 µM | TGI (HOP-62 NSCLC): > 100 µM | GI50 (PC-3 prostate): > 100 µM | TGI (PC-3 prostate): > 100 µM | GI50 (SK-OV-3 ovarian): > 58 µM | TGI (SK-OV-3 ovarian): > 100 µM | GI50 (RXF 393 renal): > 80.4 µM | TGI (RXF 393 renal): > 100 µM | GI50 (RPMI-8226 leukemia): > 100 µM | TGI (RPMI-8226 leukemia): > 100 µM | GI50 (MDA-MB-231 breast): 62.5 µM | TGI (MDA-MB-231 breast): > 100 µM | GI50 (SK-MEL-5 melanoma): > 100 µM | TGI (SK-MEL-5 melanoma): > 100 µM | GI50 (SK-MEL-2 melanoma): > 100 µM | TGI (SK-MEL-2 melanoma): > 100 µM | GI50 (SNB-19 CNS): > 100 µM | TGI (SNB-19 CNS): > 100 µM | GI50 (NCI-H322M lung): > 100 µM | TGI (NCI-H322M lung): > 100 µM | GI50 (OVCAR-8 ovarian): > 100 µM | TGI (OVCAR-8 ovarian): > 100 µM | GI50 (LOX IMVI melanoma): > 100 µM | TGI (LOX IMVI melanoma): > 100 µM | GI50 (SNB-75 CNS): 61.5 µM | TGI (SNB-75 CNS): > 100 µM | GI50 (SN12C renal): > 94 µM | TGI (SN12C renal): > 100 µM | GI50 (HL-60(TB) leukemia): > 100 µM | TGI (HL-60(TB) leukemia): > 100 µM | GI50 (MOLT-4 leukemia): > 100 µM | TGI (MOLT-4 leukemia): > 100 µM | GI50 (NCI-H23 lung): > 100 µM | TGI (NCI-H23 lung): > 100 µM | GI50 (U251 glioblastoma): > 100 µM | TGI (U251 glioblastoma): > 100 µM | GI50 (CCRF-CEM leukemia): > 100 µM | TGI (CCRF-CEM leukemia): > 100 µM | GI50 (ACHN renal): > 100 µM | TGI (ACHN renal): > 100 µM | GI50 (A549 NSCLC): > 100 µM | TGI (A549 NSCLC): > 100 µM | GI50 (SF-539 CNS): > 100 µM | TGI (SF-539 CNS): > 100 µM | GI50 (SF-268 CNS): 99.8 µM | TGI (SF-268 CNS): > 100 µM | GI50 (TK-10 renal): > 71.4 µM | TGI (TK-10 renal): > 100 µM | GI50 (DU-145 prostate): > 100 µM | TGI (DU-145 prostate): > 100 µM | GI50 (K-562 leukemia): > 100 µM | TGI (K-562 leukemia): > 100 µM | GI50 (KM12 colon): > 100 µM | TGI (KM12 colon): > 100 µM | GI50 (T-47D breast): > 100 µM | TGI (T-47D breast): > 100 µM | GI50 (BT-549 breast): > 100 µM | TGI (BT-549 breast): > 100 µM | GI50 (HS 578T breast): > 100 µM | TGI (HS 578T breast): > 100 µM | GI50 (MDA-MB-435 melanoma): > 100 µM | TGI (MDA-MB-435 melanoma): > 100 µM | GI50 (SK-MEL-28 melanoma): > 100 µM | TGI (SK-MEL-28 melanoma): > 100 µM | GI50 (HCT-116 colon): > 100 µM | TGI (HCT-116 colon): > 100 µM | GI50 (MCF7 breast): > 100 µM | TGI (MCF7 breast): > 100 µM | GI50 (SF-295 CNS): > 100 µM | TGI (SF-295 CNS): > 100 µM | GI50 (CAKI-1 renal): > 100 µM | TGI (CAKI-1 renal): > 100 µM | GI50 (SR leukemia): > 100 µM | TGI (SR leukemia): > 100 µM | GI50 (EKVX NSCLC): > 100 µM | TGI (EKVX NSCLC): > 100 µM | GI50 (NCI/ADR-RES ovarian): > 100 µM | TGI (NCI/ADR-RES ovarian): > 100 µM | GI50 (SW-620 colon): > 100 µM | TGI (SW-620 colon): > 100 µM | GI50 (MALME-3M melanoma): > 100 µM | TGI (MALME-3M melanoma): > 100 µM | GI50 (A498 renal): > 100 µM | TGI (A498 renal): > 100 µM | GI50 (HOP-92 NSCLC): > 100 µM | TGI (HOP-92 NSCLC): > 100 µM | GI50 (MDA-MB-468 breast): > 100 µM | TGI (MDA-MB-468 breast): > 100 µM | GI50 (OVCAR-4 ovarian): > 100 µM | TGI (OVCAR-4 ovarian): > 100 µM | GI50 (UACC-257 melanoma): > 100 µM | TGI (UACC-257 melanoma): > 100 µM | GI50 (NCI-H522 lung): > 83.7 µM | TGI (NCI-H522 lung): > 100 µM | GI50 (HCC-2998 colon): > 100 µM | TGI (HCC-2998 colon): > 100 µM | GI50 (OVCAR-5 ovarian): 62 µM | TGI (OVCAR-5 ovarian): > 100 µM | GI50 (UACC-62 melanoma): > 100 µM | TGI (UACC-62 melanoma): > 100 µM
